Assay results as given in the CheMixHub ionic liquid set.

Assay: xn = mol fraction of the nth substance listed

CCCC[N+](CCCC)(CCCC)CCCC.[Cl-] + CCC(=O)O
Conditions | viscosity [mPa·s]
298 K, 100 kPa, x1 = 0.5 | 3300

CCCCCCCCCCCCCC[P+](CCCCCC)(CCCCCC)CCCCCC.[c-]1c[nH]nn1 + CCCCCCCCCCCCCC[P+](CCCCCC)(CCCCCC)CCCCCC.O=S(=O)([N-]S(=O)(=O)C(F)(F)F)C(F)(F)F
100 kPa
Conditions | viscosity [mPa·s]
288.15 K, x2 = 0.7 | 693
293.15 K, x2 = 0.5 | 502
293.15 K, x2 = 0.7 | 495
303.15 K, x2 = 0.401 | 288
303.15 K, x2 = 0.5 | 270
303.15 K, x2 = 0.7 | 270
308.15 K, x2 = 0.203 | 217
308.15 K, x2 = 0.5 | 204
308.15 K, x2 = 0.902 | 181

CCCCC[N+](CCCCC)(CCCCC)CCCCC.O=[N+]([O-])[O-] + CCCCCCCCCCCCOS(=O)(=O)[O-].[Na+] + O
viscosity [mPa·s], 100 kPa
Conditions | x2 = 1.81e-06, x1 = 0.0001802 | x2 = 3.62e-06, x1 = 0.0001802 | x2 = 5.42e-06, x1 = 0.0001802 | x2 = 7.23e-06, x1 = 0.0001802 | x2 = 9.04e-06, x1 = 0.0001802 | x2 = 1.085e-05, x1 = 0.0001802 | x2 = 1.266e-05, x1 = 0.0001802 | x2 = 1.447e-05, x1 = 0.0001802 | x2 = 1.627e-05, x1 = 0.0001802 | x2 = 1.808e-05, x1 = 0.0001802
293.15 K | 1.017 | 1.018 | 1.019 | 1.02 | 1.02 | 1.02 | 1.021 | 1.021 | 1.021 | 1.021
298.15 K | 0.903 | 0.905 | 0.906 | 0.907 | 0.907 | 0.908 | 0.908 | 0.908 | 0.909 | 0.909
303.15 K | 0.8 | 0.801 | 0.801 | 0.801 | 0.801 | 0.802 | 0.802 | 0.803 | 0.803 | 0.804
308.15 K | 0.713 | 0.713 | 0.713 | 0.713 | 0.714 | 0.714 | 0.715 | 0.716 | 0.716 | 0.716
313.15 K | 0.647 | 0.647 | 0.648 | 0.648 | 0.648 | 0.649 | 0.649 | 0.649 | 0.65 | 0.65
318.15 K | 0.601 | 0.601 | 0.601 | 0.601 | 0.602 | 0.602 | 0.602 | 0.602 | 0.603 | 0.603

CCCCC[N+](CCCCC)(CCCCC)CCCCC.O=[N+]([O-])[O-] + CCCCCCCCCCCC[N+](C)(C)C.[Br-] + O
viscosity [mPa·s], 100 kPa
Conditions | x2 = 5.424e-05, x1 = 0.0001802 | x2 = 0.0001085, x1 = 0.0001801 | x2 = 0.0001627, x1 = 0.0001801 | x2 = 0.0002169, x1 = 0.0001801 | x2 = 0.0002712, x1 = 0.0001801 | x2 = 0.0003254, x1 = 0.0001801 | x2 = 0.0003796, x1 = 0.0001801 | x2 = 0.0004338, x1 = 0.0001801 | x2 = 0.000488, x1 = 0.0001801 | x2 = 0.0005422, x1 = 0.0001801
293.15 K | 1.045 | 1.046 | 1.048 | 1.049 | 1.05 | 1.051 | 1.052 | 1.052 | 1.052 | 1.052
298.15 K | 0.929 | 0.931 | 0.932 | 0.933 | 0.933 | 0.934 | 0.934 | 0.934 | 0.935 | 0.935
303.15 K | 0.825 | 0.825 | 0.825 | 0.825 | 0.826 | 0.826 | 0.827 | 0.827 | 0.827 | 0.828
308.15 K | 0.735 | 0.736 | 0.736 | 0.736 | 0.736 | 0.737 | 0.737 | 0.738 | 0.739 | 0.739
313.15 K | 0.668 | 0.668 | 0.669 | 0.669 | 0.669 | 0.67 | 0.67 | 0.67 | 0.671 | 0.671
318.15 K | 0.62 | 0.621 | 0.621 | 0.622 | 0.622 | 0.622 | 0.622 | 0.622 | 0.623 | 0.623

CC(C)C[C@H](NC(=O)CN)C(=O)O + CCCCCCCCCCCC[N+](C)(C)Cc1ccccc1.[Cl-] + O
electrical conductivity [S/m], 101 kPa
Conditions | 293.15 K | 298.15 K | 303.15 K | 308.15 K | 313.15 K
x1 = 0.0009002, x2 = 0 | 0.00295 | 0.00335 | 0.0038 | 0.00435 | 0.00495
x1 = 0.001793, x2 = 0 | 0.00449 | 0.00524 | 0.00608 | 0.00702 | 0.00811

CCCCCCCCCCCCCC[P+](CCCCCC)(CCCCCC)CCCCCC.N#Cc1ccc[n-]1 + CCCCCC[n+]1ccn(C)c1.O=S(=O)([N-]S(=O)(=O)C(F)(F)F)C(F)(F)F
viscosity [mPa·s], 100 kPa
Conditions | x2 = 0 | x2 = 0.2 | x2 = 0.4 | x2 = 0.504
283.15 K | – | – | 940 | 810
288.15 K | 800 | 790 | – | –

CCCCCCCCCCCCCC[P+](CCCCCC)(CCCCCC)CCCCCC.[c-]1c[nH]nn1 + CCCCCC[n+]1ccn(C)c1.O=S(=O)([N-]S(=O)(=O)C(F)(F)F)C(F)(F)F
viscosity [mPa·s], 100 kPa
Conditions | 278.15 K | 283.15 K | 288.15 K | 293.15 K | 298.15 K | 303.15 K | 308.15 K | 313.15 K | 318.15 K | 323.15 K
x2 = 0.135 | 2499 | 1630 | 1087 | 744 | 527 | 382 | 284 | 215 | 166 | 131
x2 = 0.3 | 2448 | 1593 | 1061 | 725 | 511 | 369 | 274 | 206 | 159 | 125
x2 = 0.348 | 2031 | 1329 | 890 | 614 | 437 | 317 | 236 | 180 | 139 | 109
x2 = 0.45 | 1597 | 1057 | 717 | 498 | 358 | 262 | 197 | 151 | 118 | 94
x2 = 0.58 | 1211 | 820 | 567 | 402 | 294 | 219 | 168 | 131 | 104 | 84
x2 = 0.698 | 755 | 522 | 369 | 268 | 200 | 152 | 119 | 94 | 76 | 62
x2 = 0.849 | 417 | 295 | 214 | 159 | 122 | 96 | 77 | 62 | 51 | –

CCCC(C)O (stereo unspecified) + CCCCCC[n+]1ccn(C)c1.O=[N+]([O-])[O-]
Conditions | viscosity [mPa·s]
323.15 K, 100 kPa, x2 = 0 | 1.39

C[NH2+]CCC=C1c2ccccc2CCc2ccccc21.[Cl-] + CCCCCC[n+]1ccn(C)c1.[Br-] + O
viscosity [mPa·s], 100 kPa
Conditions | 288.15 K | 298.15 K | 308.15 K | 318.15 K
x1 = 0.0002039, x2 = 0.00126 | 1.185 | 0.957 | 0.792 | 0.677
x1 = 0.000208, x2 = 0.0001801 | 1.17 | 0.938 | 0.775 | 0.658
x1 = 0.0002218, x2 = 0.0007201 | 1.178 | 0.948 | 0.785 | 0.658
x1 = 0.0005639, x2 = 0.0001801 | 1.181 | 0.948 | 0.785 | 0.667
x1 = 0.0005652, x2 = 0.001259 | 1.196 | 0.967 | 0.802 | 0.688
x1 = 0.0005656, x2 = 0.0007199 | 1.189 | 0.957 | 0.794 | 0.667
x1 = 0.0009086, x2 = 0.0007196 | 1.201 | 0.967 | 0.803 | 0.676
x1 = 0.0009302, x2 = 0.00018 | 1.192 | 0.958 | 0.795 | 0.676
x1 = 0.0009557, x2 = 0.001259 | 1.208 | 0.978 | 0.812 | 0.699
x1 = 0.001281, x2 = 0.001258 | 1.22 | 0.989 | 0.822 | 0.709
x1 = 0.001285, x2 = 0.0001799 | 1.204 | 0.969 | 0.805 | 0.685
x1 = 0.001294, x2 = 0.0007194 | 1.213 | 0.977 | 0.812 | 0.685
x1 = 0.001641, x2 = 0.0001799 | 1.217 | 0.98 | 0.815 | 0.694
x1 = 0.001649, x2 = 0.0007191 | 1.226 | 0.988 | 0.821 | 0.694
x1 = 0.001666, x2 = 0.001258 | 1.233 | 1.001 | 0.832 | 0.719
x1 = 0.001985, x2 = 0.0001798 | 1.23 | 0.991 | 0.825 | 0.703
x1 = 0.002032, x2 = 0.0007188 | 1.239 | 0.999 | 0.831 | 0.703
x1 = 0.002034, x2 = 0.001257 | 1.246 | 1.013 | 0.843 | 0.728
x1 = 0.002348, x2 = 0.0001797 | 1.244 | 1.002 | 0.835 | 0.712
x1 = 0.002385, x2 = 0.0007186 | 1.253 | 1.012 | 0.842 | 0.712
x1 = 0.002389, x2 = 0.001257 | 1.26 | 1.025 | 0.854 | 0.737
x1 = 0.00272, x2 = 0.0001797 | 1.258 | 1.014 | 0.845 | 0.721
x1 = 0.002762, x2 = 0.0007183 | 1.267 | 1.025 | 0.854 | 0.721
x1 = 0.002776, x2 = 0.001256 | 1.275 | 1.037 | 0.865 | 0.746
x1 = 0.003079, x2 = 0.0001796 | 1.273 | 1.026 | 0.855 | 0.73
x1 = 0.003114, x2 = 0.000718 | 1.282 | 1.037 | 0.866 | 0.731
x1 = 0.003126, x2 = 0.001256 | 1.291 | 1.049 | 0.876 | 0.755
x1 = 0.003445, x2 = 0.0001796 | 1.288 | 1.038 | 0.865 | 0.739
x1 = 0.003472, x2 = 0.001255 | 1.307 | 1.063 | 0.888 | 0.764
x1 = 0.003507, x2 = 0.0007177 | 1.297 | 1.05 | 0.878 | 0.741

CCCCCCCCCCCCCC[P+](CCCCCC)(CCCCCC)CCCCCC.N#Cc1ccc[n-]1 + CCCCCC[n+]1ccn(C)c1C.O=S(=O)([N-]S(=O)(=O)C(F)(F)F)C(F)(F)F
100 kPa
Conditions | viscosity [mPa·s]
278.15 K, x2 = 0.799 | 900
283.15 K, x2 = 0.601 | 900
288.15 K, x2 = 0 | 800
288.15 K, x2 = 0.098 | 870
288.15 K, x2 = 0.301 | 760

CCCC[n+]1ccn(C)c1.[Br-] + CCCCOCCO
viscosity [mPa·s], 100 kPa
Conditions | x1 = 0.1007 | x1 = 0.2003 | x1 = 0.3007 | x1 = 0.4003 | x1 = 0.5 | x1 = 0.5992 | x1 = 0.7002 | x1 = 0.8003 | x1 = 0.8978 | x1 = 1
298.15 K | 18.4 | 56.8 | 108 | 155 | 201 | 263 | 374 | 577 | 920 | 1451
303.15 K | 12.2 | 32.5 | 59.6 | 86.7 | 115 | 152 | 212 | 320 | 511 | 837
308.15 K | 9.08 | 22.8 | 40.7 | 59.4 | 77 | 98 | 132 | 187 | 297 | 506
313.15 K | 6.85 | 16.2 | 29.1 | 41.7 | 54.2 | 67.6 | 87.9 | 122 | 188 | 330

CC(O)C(C)O (stereo unspecified) + CCCC[N+](C)(C)C.O=S(=O)([N-]S(=O)(=O)C(F)(F)F)C(F)(F)F
101 kPa
Conditions | viscosity [mPa·s]
323.15 K, x1 = 0.557 | 16.54
323.15 K, x1 = 0.6216 | 16.03
328.15 K, x1 = 0.557 | 13.6
333.15 K, x1 = 0.3137 | 15.23
333.15 K, x1 = 0.4515 | 13.1
333.15 K, x1 = 0.557 | 11.67
343.15 K, x1 = 1 | 6.7
